Laboratory results published in patent US20230172897A1, “METHODS OF TREATING BREAST CANCERS WITH SELECTIVE ANDROGEN RECEPTOR MODULATORS AND ADDITIONAL THERAPEUTIC AGENTS” (VERU, INC., priority 2021, published 2023).
“And” between values parts separate entries of the source, which are not always exact repeats. Equal entries are not always repeated.

Test system: metastatic or locally advanced ER+/AR+ breast cancer
Test: Phase 2 clinical trial (G200802), 9 mg or 18 mg daily
Assay type: in vivo, postmenopausal women
Conditions: for Best overall objective tumor response: CR (number) / Best overall objective tumor response: PR (number): all evaluable patients; for Average rPFS / Clinical Benefit Response Rate / Clinical Benefit Responses (CR + PR + SD) / Median rPFS / Objective Response Rate / Objective Responses (CR + PR): measurable disease at baseline
Experimental: Each dose arm was treated independently, and each assessed for efficacy using Simon's two-stage (optimal) design (Simon R. Optimal two-stage designs for Phase 2 clinical trials. Controlled Clinical Trials 1989; 10: 1-10). Subjects were randomized in a 1:1 fashion to one of the two dose arms.
Randomization was stratified by subjects presenting with bone only metastases and all other subjects, and further by setting of immediately preceding therapy (adjuvant setting or metastatic setting) in order to balance the proportion of subjects with these presenting features in each dose arm.
Thirty-six to eighty-eight (36-88) subjects with centrally confirmed AR+ who received at least one dose of study drug (evaluable subjects) were needed for primary efficacy analysis purposes and were a subset of the full analysis set (FAS). Fifty patients in the 9 mg cohort and 52 patients in the 18 mg cohort met these criteria. […] Other statistical parameters that were part of the sample size calculation are α=0.025 (one-sided) and power=90%. The first stage in each study arm was assessed among the first 18 evaluable subjects. Greater than 3/18 subjects achieved CB (defined as CR, PR, or SD) at week 24, and both arms proceeded to the second stage of recruitment up to a total of 44 evaluable subjects per arm. Otherwise, the arm would have been discontinued for lack of efficacy. Statistical significance, i.e., rejection of the null hypothesis of an unacceptably low CBR of ≤10% in favor of the alternative hypothesis that indicated the higher rate, ≥30%, was more likely, would be declared if at least 9/44 subjects achieved CB at week 24 in that arm.
These patients on the study had measurable disease at baseline and an AR staining prior to entry into the study. The radiographic imaging in this patient population was done every 12 weeks (2.7 months). Therefore, the minimum radiographic progression free survival (rPFS) that could be determined is approximately 2.7 months. 90% of the patients in the study had previously received non-endocrine based chemotherapy. The patients in this study had failed an average of 2 prior treatment lines for metastatic disease (range=0-5). FIG. 43 provides a scatterplot for the patients in this study with regard to the correlation between % AR-positive staining at baseline (% AR staining) and rPFS. […] However, in patients with greater than or equal to 40% AR-positive staining, the rPFS was delayed to variable extents (scatter plot pattern) in many to most cases. A positive correlation between rPFS and % AR staining was seen above the threshold of 40% AR staining. To explore this positive correlation further, several subgroups of AR % staining were defined and analyzed for metrics of efficacy, as shown in Table 14.

C[C@](O)(COc1ccc(C#N)cc1)C(=O)Nc1ccc(C#N)c(C(F)(F)F)c1 [Formula IX, (S)—N-(4-Cyano-3-(trifluoromethyl)phenyl)-3-(4-cyanophenoxy)-2-hydroxy-2-methylpropanamide]
clinical benefit rate at 6 months (9 mg): 32%
Quality of life assessments (9 mg and 18 mg cohorts): significant improvement from baseline
tolerability (9 mg and 18 mg doses): well tolerated
response rate in patients previously treated with palbociclib and failed (9 mg arm, 3 patients): 33%
Median duration of clinical benefit (9 mg group): not reached
Best overall objective tumor response: CR (number) (9 mg, post-hoc): 3
Best overall objective tumor response: PR (number) (9 mg, post-hoc): 8
Average rPFS (9 mg, % AR staining 20-40): 2.51 months
Clinical Benefit Response Rate (9 mg, % AR staining 20-40): 22%
Clinical Benefit Responses (CR + PR + SD) (9 mg, % AR staining 20-40): 2
Median rPFS (9 mg, % AR staining 20-40): 2.77 months
Objective Response Rate (9 mg, % AR staining 20-40): 0%
Objective Responses (CR + PR) (9 mg, % AR staining 20-40): 0
Average rPFS (9 mg, % AR staining 40-60): 4.62 months
Clinical Benefit Response Rate (9 mg, % AR staining 40-60): 86%
Clinical Benefit Responses (CR + PR + SD) (9 mg, % AR staining 40-60): 6
Median rPFS (9 mg, % AR staining 40-60): 2.93 months
Objective Response Rate (9 mg, % AR staining 40-60): 43%
Objective Responses (CR + PR) (9 mg, % AR staining 40-60): 3
Average rPFS (9 mg, % AR staining 60-80): 8.10 months
Clinical Benefit Response Rate (9 mg, % AR staining 60-80): 80%
Clinical Benefit Responses (CR + PR + SD) (9 mg, % AR staining 60-80): 8
Median rPFS (9 mg, % AR staining 60-80): 5.60 months
Objective Response Rate (9 mg, % AR staining 60-80): 60%
Objective Responses (CR + PR) (9 mg, % AR staining 60-80): 6
Average rPFS (9 mg, % AR staining <20): 2.83 months
Clinical Benefit Response Rate (9 mg, % AR staining <20): 15%
Clinical Benefit Responses (CR + PR + SD) (9 mg, % AR staining <20): 2
Median rPFS (9 mg, % AR staining <20): 2.70 months
Objective Response Rate (9 mg, % AR staining <20): 0%
Objective Responses (CR + PR) (9 mg, % AR staining <20): 0
Average rPFS (9 mg, % AR staining <40): 2.7 months and 2.70 months
Clinical Benefit Response Rate (9 mg, % AR staining <40): 18%
Clinical Benefit Responses (CR + PR + SD) (9 mg, % AR staining <40): 4
Median rPFS (9 mg, % AR staining <40): 2.72 months
Objective Responses (CR + PR) (9 mg, % AR staining <40): 0
Average rPFS (9 mg, % AR staining <60): 3.17 months
Clinical Benefit Response Rate (9 mg, % AR staining <60): 34%
Clinical Benefit Responses (CR + PR + SD) (9 mg, % AR staining <60): 10
Median rPFS (9 mg, % AR staining <60): 2.77 months
Objective Response Rate (9 mg, % AR staining <60): 10%
Objective Responses (CR + PR) (9 mg, % AR staining <60): 3
Average rPFS (9 mg, % AR staining >40): 7.15 months
Clinical Benefit Response Rate (9 mg, % AR staining >40): 80%
Clinical Benefit Responses (CR + PR + SD) (9 mg, % AR staining >40): 20
Median rPFS (9 mg, % AR staining >40): 5.47 months
Objective Responses (CR + PR) (9 mg, % AR staining >40): 12
Average rPFS (9 mg, % AR staining >60): 8.14 months
Clinical Benefit Response Rate (9 mg, % AR staining >60): 78%
Clinical Benefit Responses (CR + PR + SD) (9 mg, % AR staining >60): 14
Median rPFS (9 mg, % AR staining >60): 5.60 months
Objective Response Rate (9 mg, % AR staining >60): 50%
Objective Responses (CR + PR) (9 mg, % AR staining >60): 9
Average rPFS (9 mg, % AR staining >80): 8.18 months
Clinical Benefit Response Rate (9 mg, % AR staining >80): 75%
Clinical Benefit Responses (CR + PR + SD) (9 mg, % AR staining >80): 6
Median rPFS (9 mg, % AR staining >80): 6.23 months
Objective Response Rate (9 mg, % AR staining >80): 38%
Objective Responses (CR + PR) (9 mg, % AR staining >80): 3
median duration of response in patients with an objective tumor response (9 mg, post-hoc): 8.18 months
responders with duration of response >12 months (9 mg, post-hoc): 25%
responders with duration of response ≥6 months (9 mg, post-hoc): 67%
clinical benefit rate at 6 months (18 mg): 29%
response rate in patients previously treated with palbociclib and failed (18 mg arm, 6 patients): 33%
Median duration of clinical benefit (18 mg group): 14.1 months
Best overall objective tumor response: CR (number) (18 mg, post-hoc): 1
Best overall objective tumor response: PR (number) (18 mg, post-hoc): 5
patients with an objective response after progression on estrogen blocking agents and CDK 4/6 inhibitor (AR nuclei staining ≥40% (7 patients), post-hoc): 3 patients
objective response rate after progression on estrogen blocking agents and CDK 4/6 inhibitor (AR nuclei staining ≥60% subgroup (4 patients)): 75%
first stage: subjects achieving CB at week 24 (both arms (9 mg, 18 mg), first 18 evaluable subjects): Greater than 3/18
